Test results published in patent US8497299B2, “Compositions including quinonoid derivatives of cannabinoids for therapeutic use” (Yissum Research Development Company of The Hebrew …, priority 2004, dated 2013).
Values joined by “and” are separate entries in the source; they are usually repeats but may differ in a detail not shown here. Identical values can stand only once.

Assays:
[1] = system: Raji (Burkitt's lymphoma); assay: MTT cell proliferation test, Raji cells; assay type: cell-based, human
Procedure: (§1) Aliquots (200 μL) of suspensions of cancer cells were dispensed into wells of 96-well tissue culture plates at densities of 0.02×10^6 cells/well. Various concentrations of cannabinoic quinones were introduced into the wells, and their efficacy was tested three days after initiation of the cultures, using the 3-(4,5-dimethylthiazol-2-yl)-2,5-diphenyltetrazolium bromide (MTT) assay. The principle of this assay is that cells which survive following exposure to various compounds can reduce MTT to a dark-colored formazan, while dead cells are incapable of doing so. […] In each MTT assay every concentration of the cytotoxic substance was tested in five replicates in microplate wells. Assays with every cell line were carried out in two to three repeated experiments. The inhibitory effect of various compounds was calculated as percentage inhibition in comparison with the values obtained in untreated wells to which vehicle (ethanol 0.5%) was added.

[2] = system: Jurkat (human T-cell lymphoma); assay: MTT cell proliferation test, Jurkat cells; assay type: cell-based
Procedure: as §1

MCF-7 (breast cancer) = assay: MTT cell proliferation test, MCF-7 cells; assay type: cell-based, human
Procedure: (§2) Raji and Jurkat cells were suspended in RPMI 1640 medium, supplemented with 20% heat-inactivated fetal calf serum (H-I FCS), 2 mM L-glutamine, 100 U/mL penicillin, and 0.01 mg/mL streptomycin at 37° C. in a 5% CO2 humidified atmosphere. Other cell lines were suspended in RPMI 1640 medium, supplemented with 10% H-I FCS, 2 mM L-glutamine, 100 U/mL penicillin, and 0.01 mg/mL streptomycin at 37° C. in a 5% CO2 humidified atmosphere.
(§3) Aliquots (200 μL) of suspensions of cancer cells were dispensed into wells of 96-well tissue culture plates at densities of 0.02×10^6 cells/well. Various concentrations of cannabinoic quinones were introduced into the wells, and their efficacy was tested three days after initiation of the cultures, using the 3-(4,5-dimethylthiazol-2-yl)-2,5-diphenyltetrazolium bromide (MTT) assay. The principle of this assay is that cells which survive following exposure to various compounds can reduce MTT to a dark-colored formazan, while dead cells are incapable of doing so. The assay was performed as described previously [Carmichael, J., et al. (1987) Cancer Res. 47, 936-42; Rubinstein, L. V. et al. (1990) J Natl Cancer Inst. 82, 1113-8; Rubnov, S. et al. (2001) J Nat Prod. 64, 993-6]. In each MTT assay every concentration of the cytotoxic substance was tested in five replicates in microplate wells. Assays with every cell line were carried out in two to three repeated experiments. The inhibitory effect of various compounds was calculated as percentage inhibition in comparison with the values obtained in untreated wells to which vehicle (ethanol 0.5%) was added.
(§4) The ability of cannabinoic quinones to inhibit cancer growth in vitro was verified on the following human cancer cell lines: Raji (Burkitt's lymphoma), Jurkat (human T-cell lymphoma), SNB-19 (glioblastoma), MCF-7 (breast cancer), DU-145 (prostate cancer), NCI-H-226 (lung cancer), and HT-29 (colon cancer) (see FIG. 5A-5E).

HT-29 (colon cancer) = assay: MTT cell proliferation test, HT-29 cells; assay type: cell-based, human
Procedure: as §2, §3, §4

[3] = system: human cancer cell lines (Raji, Jurkat, SNB-19, MCF-7, DU-145, NCI-H-226, HT-29); assay: MTT cell proliferation test, all cell lines tested; assay type: cell-based; conditions: for growth inhibition of human cancer cell lines in vitro, in words: MTT; for concentration at which all cell lines tested were inhibited: all cell lines / cell types tested
Procedure: as §1

HT-29 colon cancer = assay: Growth of HT-29 colon cancer grafted s.c. in nude mice; assay type: in vivo
Procedure: Tumors were grafted into nude mice by s.c. flank inoculation of 0.2×10^6 HT-29 cells in RPMI 1640 medium without FCS. The animals were assigned randomly to various groups and injected via intraperitoneal (i.p.), intratumor or subcutaneous (s.c.) on day 2 or 14 after cells injection with vehicle (1:1:18 v/v ethanol:Emulphor®:PBS) or 5 mg/kg of HU-331. Tumors were measured with external caliper, and their area was calculated by multiplying the length by the width of the tumor.
(§5) A series of experiments were carried out to determine the capacity of HU-331 to inhibit the growth of human tumor cells in vivo. Nude mice received a subcutaneous (s.c.) injection of HT-29 human colon cancer cells. At various time intervals after the administration of the tumor cells the mice received i.p. or s.c. injections of HU-331 (2) at a dose of 5 mg/kg 3 times per week. This concentration paralleled the concentration of 5 μg/ml used in the in vitro experiments, which killed about 50% of HT-29 cancer cells.
Further, ten nude mice received a s.c. injection of HT-29 and were divided in two groups. Starting from day 2 after tumor injection, one group of mice received the i.p. injections of HU-331.
In another in vivo experiment, two groups of nude mice received an injection of HT-29 cancer cells subcutaneously in their backs. HU-331 (2) was injected subcutaneously at a concentration of 5 μg/ml (FIG. 6). In one group (Group 1), HU-331 was administrated intra-tumorally starting 14 days after the injection of tumor cells. In another group (Group 2), HU-331 was injected subcutaneously in the region where cancer cells had been injected, starting 2 days after the injection of tumor cells. […] In the mice that received HU-331 intra-tumorally starting 14 days after tumor implantation (Group 1), the anti-tumor effect of HU-331 took a longer time to be manifested.

[4] = Tolerability in treated nude mice (weight loss, adverse effects); assay type: in vivo; conditions: 5 mg/kg
Procedure: as §5

SNB-19 (glioblastoma) = assay: MTT cell proliferation test, SNB-19 cells; assay type: cell-based, human; conditions: for susceptibility of the cell line to inhibition, in words: SNB-19, relative to the other cell lines
Procedure: as §1

DU-145 (prostate cancer) = assay: MTT cell proliferation test, DU-145 cells; assay type: cell-based, human; conditions: for susceptibility of the cell line to inhibition, in words: DU-145, relative to the other cell lines
Procedure: as §1

C=C(C)[C@@H]1CCC(C)=C[C@H]1C1=C(O)C(=O)C(CCCCC)=CC1=O [HU-331, 3S,4R-p-benzoquinone-3-hydroxy-2-p-mentha-(1,8)-dien-3-yl-5-pentyl]
concentration giving 50% inhibition of growth ([1]; Raji lymphoma, MTT, three days): 0.2 µg/mL
inhibition of Raji cell growth ([1]; at 0.2 μg/ml): about 50%
inhibition of Raji cell growth ([1]; at 1.56 μg/ml): over 80%
concentration giving 50% inhibition of growth ([2]; Jurkat lymphoma, MTT, three days): 0.2 µg/mL
inhibition of Jurkat cell growth ([2]; at 0.2 μg/ml): about 50%
inhibition of Jurkat cell growth ([2]; at 1.56 μg/ml): over 80%
susceptibility of the cell line to inhibition, in words (MCF-7 (breast cancer); MCF-7, relative to the other cell lines): most susceptible
concentration required for 50% inhibition of growth (MCF-7 (breast cancer); MCF-7 mammary cancer, MTT, three days): 3.125 µg/mL
inhibition of MCF-7 cell growth (MCF-7 (breast cancer); at 3.125 μg/ml): about 50%
susceptibility of the cell line to inhibition, in words (HT-29 (colon cancer); HT-29, relative to the other cell lines): most susceptible
concentration required for 50% inhibition of growth (HT-29 (colon cancer); HT-29 colon cancer, MTT, three days): 3.125 µg/mL
inhibition of HT-29 cell growth (HT-29 (colon cancer); at 3.125 μg/ml): about 50%
HT-29 cancer cells killed (HT-29 (colon cancer); at 5 μg/ml in vitro): about 50%
growth inhibition of human cancer cell lines in vitro, in words [3]: exerted an inhibitory effect on the in vitro growth of all seven human cancer cell lines tested
tumor size versus controls (HT-29 colon cancer; i.p. 5 mg/kg 3 times per week from day 2, at 35 days after cancer cell injection, p<0.0029): half the size of the tumors in controls
tumor size versus vehicle-treated control mice (HT-29 colon cancer; i.p. 5 mg/kg 3 times per week from day 2, starting at 25 days after cancer cells injection, p<0.05): significantly smaller
tumor size versus controls (HT-29 colon cancer; intra-tumoral from day 14 (Group 1), from day 31 onwards, not significant until day 45): smaller than in controls
tumor size versus control mice (HT-29 colon cancer; intra-tumoral from day 14 (Group 1), starting at day 45 after cell injection, p<0.05): significantly smaller
tumor size versus control mice (HT-29 colon cancer; s.c. in the region of the graft from day 2 (Group 2), at days 17-25 and until day 59, p<0.05): significantly smaller
weight loss and observable adverse effects [4]: did not cause either weight loss or any observable adverse effects

CCCCCC1=CC(=O)C2=C(OC(C)(C)c3ccc(C)cc32)C1=O [HU-345, 1-H-dibenzo[b,d]pyran-1,4(6H)-dione-6,6,9-trimethyl-3-pentyl]
inhibition at 6.25 µg/mL ([1]; Homo sapiens, Raji, read-out: inhibition of Raji cell growth): > 50%
inhibition of Raji cell growth, comparison in words ([1]; MTT): more effectively than that of the other cell lines tested
concentration at which growth was inhibited ([2]; Jurkat cells): 12.5 µg/mL and 12.5 to 25.0 µg/mL
susceptibility of the cell line to inhibition, in words (SNB-19 (glioblastoma)): most susceptible
susceptibility of the cell line to inhibition, in words (DU-145 (prostate cancer)): most susceptible
concentration at which growth was inhibited (DU-145 (prostate cancer); DU-145 prostate cancer cells): 12.5 µg/mL
concentration at which all cell lines tested were inhibited [3]: 25.0 µg/mL and 12.5 to 25.0 µg/mL

CCCCCC1=CC(=O)C([C@@H]2CC(C)CC[C@H]2C(C)C)=C(O)C1=O (stereo partly drawn) [HU-396, 3S,4R-p-benzoquinone-3-hydroxy-2-[p-menthan-3-yl]-5-pentyl]
inhibition of Jurkat cell proliferation, comparison in words ([2]; MTT): less effectively than HU-395 and HU-331
Jurkat cancer cells killed ([2]; at 0.39 μg/ml): about 40%
Jurkat cancer cells killed ([2]; at 0.78 μg/ml): about 60%

CCCCCC1=CC(=O)C2=C(OC(C)(C)[C@@H]3CC=C(C)C[C@@H]23)C1=O [HU-336, 6aR,10aR-1-H-dibenzo[b,d]pyran-1,4-(6H)-dione-6aβ,7,10,10aα-tetrahydro-6,6,9-trimethyl-3-pentyl]
susceptibility of the cell line to inhibition, in words (SNB-19 (glioblastoma)): most susceptible
concentration at which growth was inhibited (SNB-19 (glioblastoma); SNB-19 cells, inhibited only at this concentration): 100 µg/mL
susceptibility of the cell line to inhibition, in words (DU-145 (prostate cancer)): most susceptible
growth inhibition of human cancer cell lines in vitro, in words [3]: weakest capacity to inhibit the growth of human cancer cell lines in vitro
concentration at which all cell lines tested were inhibited [3]: over 12.5 μg/ml
inhibition of growth of all the cells tested ([3]; at 12.5 μg/ml or higher): ≥ 50%

CCCCCC1=CC(=O)C([C@@H]2C=C(C)CC[C@H]2C(C)C)=C(O)C1=O [HU-395, 3S,4R-p-benzoquinone-3-hydroxy-2-[p-mentha-1-en-3-yl]-5-pentyl]
inhibition at 0.2 µg/mL ([2]; Homo sapiens, Jurkat, at 0.2 μg/ml, read-out: inhibition of Jurkat cell growth): ~60%
inhibition of Jurkat cell proliferation, comparison in words ([2]; MTT): at least to the same extent as HU-331
